From ChEMBL document CHEMBL1130572, “Synthesis and anti HCMV activity of 3,4-disubstituted tetrahydrofuran derived nucleosides and nucleotides: A tethered series of PME derivatives” (Bioorg Med Chem Lett, 1997)
≈ marks a conversion by molar mass, not a printed value. Calls of active or inactive are those of the source. The calls are words filed in the database; no cut-off is given here.

Assays:
Human betaherpesvirus 5 [1] = experiment: Compound was tested in vitro for inhibitory activity against HCMV (Human cytomegalovirus); format: functional, organism-based
Human betaherpesvirus 5 [2] = experiment: Compound was tested in vitro for cytotoxic activity against HCMV (Human cytomegalovirus); format: functional
WI-38 [3] = experiment: Compound was tested in vitro for inhibitory activity against HCMV (Human cytomegalovirus) in WI38 cells; format: functional, cell-based
WI-38 [4] = experiment: Compound was tested in vitro for cytotoxic activity against HCMV (Human cytomegalovirus) in WI38 cells; format: functional
F2002 cell line [5] = experiment: Compound was tested in vitro for cytotoxic activity against HCMV (Human cytomegalovirus) in Flow 2002 cells; format: functional
F2002 cell line [6] = experiment: Compound was tested in vitro for inhibitory activity against HCMV (Human cytomegalovirus) in Flow 2002 cells; format: functional, cell-based
Human betaherpesvirus 5 [7] = experiment: Compound (up to 100 ug/mL) was tested in vitro for inhibitory activity against HCMV (Human cytomegalovirus); Inactive; format: functional, organism-based
[8] = Compound was tested for selectivity index of […]; format: functional

SMILES	IC50 (F2002 cell line [6]) [µg/mL]	CC50 (F2002 cell line [5]) [µg/mL]	also measured
Nc1nc2c(ncn2COC(CO)CO)c(=O)[nH]1 [GANCICLOVIR]			IC50 (Human betaherpesvirus 5 [1]): 0.1 µg/mL (≈ 0.392 µM); CC50 (Human betaherpesvirus 5 [2]): > 100 µg/mL
N.Nc1ccn(C2COCC2OCP(=O)(O)O)c(=O)n1 (stereo not drawn)			IC50 (WI-38 [3]): > 100 µg/mL; CC50 (WI-38 [4]): > 100 µg/mL
Nc1ncnc2c1ncn2C1COCC1O (stereo not drawn)			IC50 (WI-38 [3]): > 50 µg/mL; CC50 (WI-38 [4]): 100 µg/mL (≈ 452 µM)
N.Nc1ccn([C@@H]2COCC2OCP(=O)(O)O)c(=O)n1 (stereo partly drawn)			IC50 (WI-38 [3]): > 50 µg/mL; CC50 (WI-38 [4]): > 100 µg/mL
Nc1ncnc2c1ncn2C1COCC1OCP(=O)(O)O (stereo not drawn)			Activity (Human betaherpesvirus 5 [7]): inactive
Nc1ncnc2c1ncn2[C@@H]1COCC1OCP(=O)(O)O (stereo partly drawn)			Activity (Human betaherpesvirus 5 [7]): inactive

More lines, main results first:

IC50 (F2002 cell line [6]) [µg/mL]	SMILES	CC50 (F2002 cell line [5]) [µg/mL]	also measured
> 100	O=c1ccn(C2COCC2OCP(=O)(O)O)c(=O)[nH]1 (stereo not drawn)	> 100	
> 100	O=c1ccn([C@@H]2COCC2OCP(=O)(O)O)c(=O)[nH]1 (stereo partly drawn)	100 (≈ 342 µM)	
> 100	Nc1ncnc2c1ncn2[C@@H]1COCC1O (stereo partly drawn)	> 100	
> 100	Nc1ccn(C2COCC2O)c(=O)n1 (stereo not drawn)	100 (≈ 507 µM)	
> 100	O=c1ccn([C@@H]2COCC2O)c(=O)[nH]1 (stereo partly drawn)	> 100	
3 (≈ 15.2 µM)	Nc1ccn([C@@H]2COCC2O)c(=O)n1 (stereo partly drawn)	100 (≈ 507 µM)	Selectivity index [8]: 33
